{"source": "ChEMBL document CHEMBL2073816", "about": "(J Biol Chem, 2001)", "key": {"[1]": {"target": "T1, Solute carrier family 22 member 2 (Homo sapiens, UniProt O15244)", "T1 sequence (O15244 whole entry)": "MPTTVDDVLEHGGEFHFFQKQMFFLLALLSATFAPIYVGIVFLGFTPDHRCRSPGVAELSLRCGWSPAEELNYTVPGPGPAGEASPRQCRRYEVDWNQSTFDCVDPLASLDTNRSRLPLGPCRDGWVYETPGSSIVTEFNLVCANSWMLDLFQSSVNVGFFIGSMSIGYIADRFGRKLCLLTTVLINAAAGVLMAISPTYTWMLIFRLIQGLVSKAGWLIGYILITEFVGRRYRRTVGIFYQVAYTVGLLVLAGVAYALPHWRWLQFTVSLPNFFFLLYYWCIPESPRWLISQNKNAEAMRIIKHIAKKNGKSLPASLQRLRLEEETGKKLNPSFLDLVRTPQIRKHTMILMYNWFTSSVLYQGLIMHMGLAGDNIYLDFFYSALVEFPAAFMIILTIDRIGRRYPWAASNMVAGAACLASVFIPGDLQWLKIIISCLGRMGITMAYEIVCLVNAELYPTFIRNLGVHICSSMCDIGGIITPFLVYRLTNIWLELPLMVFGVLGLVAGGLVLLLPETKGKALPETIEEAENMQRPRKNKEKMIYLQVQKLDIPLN", "assay": "TP_TRANSPORTER: inhibition of Choline uptake (Choline: 10 uM, TPeA: 200 uM) in Xenopus laevis oocytes", "format": "functional, cell-based", "conditions": "oocyte"}, "[2]": {"target": "T2, Solute carrier family 22 member 2 (Rattus norvegicus, UniProt Q9R0W2)", "T2 sequence (Q9R0W2 whole entry)": "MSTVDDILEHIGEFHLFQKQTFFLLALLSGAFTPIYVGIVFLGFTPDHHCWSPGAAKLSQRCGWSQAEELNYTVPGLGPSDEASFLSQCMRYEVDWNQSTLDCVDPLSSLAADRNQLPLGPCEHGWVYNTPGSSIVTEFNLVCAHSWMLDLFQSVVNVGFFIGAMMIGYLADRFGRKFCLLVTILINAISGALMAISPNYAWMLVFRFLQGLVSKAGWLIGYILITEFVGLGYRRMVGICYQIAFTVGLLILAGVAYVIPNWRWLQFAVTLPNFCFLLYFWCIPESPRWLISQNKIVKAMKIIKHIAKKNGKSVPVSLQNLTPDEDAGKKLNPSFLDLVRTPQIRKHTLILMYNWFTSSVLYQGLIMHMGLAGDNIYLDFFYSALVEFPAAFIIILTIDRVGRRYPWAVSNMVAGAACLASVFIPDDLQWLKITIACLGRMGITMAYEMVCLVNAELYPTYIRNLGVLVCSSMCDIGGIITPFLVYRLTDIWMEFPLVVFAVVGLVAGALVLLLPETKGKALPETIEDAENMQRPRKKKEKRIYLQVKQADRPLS", "assay": "(§1) TP_TRANSPORTER: inhibition of Choline uptake (Choline: 10 uM, Quinine: 200 uM) in Xenopus laevis oocytes", "format": "functional, cell-based", "conditions": "oocyte"}, "[3]": {"target": "T3, Solute carrier family 22 member 1 (Rattus norvegicus, UniProt Q63089)", "T3 sequence (Q63089 whole entry)": "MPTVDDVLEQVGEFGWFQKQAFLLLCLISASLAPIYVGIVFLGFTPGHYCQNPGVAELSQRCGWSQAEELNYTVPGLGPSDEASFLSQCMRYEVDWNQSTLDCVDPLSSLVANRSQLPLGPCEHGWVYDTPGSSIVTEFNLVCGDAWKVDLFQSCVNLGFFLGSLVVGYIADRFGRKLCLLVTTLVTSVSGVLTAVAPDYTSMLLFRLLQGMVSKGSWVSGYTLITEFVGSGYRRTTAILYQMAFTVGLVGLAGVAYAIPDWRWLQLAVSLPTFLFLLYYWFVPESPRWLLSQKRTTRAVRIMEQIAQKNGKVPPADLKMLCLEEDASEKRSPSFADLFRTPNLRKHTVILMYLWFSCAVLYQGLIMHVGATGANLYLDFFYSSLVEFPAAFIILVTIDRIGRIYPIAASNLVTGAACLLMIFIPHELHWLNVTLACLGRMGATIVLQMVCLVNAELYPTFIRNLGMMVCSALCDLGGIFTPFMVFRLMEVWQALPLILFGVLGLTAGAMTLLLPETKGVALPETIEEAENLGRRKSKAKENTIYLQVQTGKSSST", "assay": "as §1", "format": "functional, cell-based", "conditions": "oocyte"}, "[4]": {"target": "T1, Solute carrier family 22 member 2", "assay": "TP_TRANSPORTER: inhibition of Choline uptake (Choline: 10 uM, NMN: 5000 uM) in Xenopus laevis oocytes", "format": "functional, cell-based", "conditions": "oocyte"}, "[5]": {"substrate": "C[N+](C)(C)CCO", "assay": "cells, lysate or membranes named"}}}
{"molecule": "CCCCC[N+](CCCCC)(CCCCC)CCCCC", "note": "[TETRAPENTYLAMMONIUM]", "values": [{"measurement": "Activity", "setting": "[1]", "value": "inhibitor [+]"}]}
{"molecule": "C=C[C@H]1C[N@@]2CC[C@H]1C[C@H]2[C@H](O)c1ccnc2ccc(OC)cc12", "note": "[QUININE]", "values": [{"measurement": "Activity", "setting": "[2]", "value": "inhibitor [+]"}, {"measurement": "Activity", "setting": "[3]", "value": "inhibitor [+]"}]}
{"molecule": "CNC(=O)c1cccnc1", "note": "[NICOTINYL METHYLAMIDE]", "values": [{"measurement": "Activity", "setting": "[4]", "value": "inhibitor [+]"}]}
{"molecule": "Solute carrier family 22 member 2 (Homo sapiens) (protein) MPTTVDDVLEHGGEFHFFQKQMFFLLALLSATFAPIYVGIVFLGFTPDHRCRSPGVAELSLRCGWSPAEELNYTVPGPGPAGEASPRQCRRYEVDWNQSTFDCVDPLASLDTNRSRLPLGPCRDGWVYETPGSSIVTEFNLVCANSWMLDLFQSSVNVGFFIGSMSIGYIADRFGRKLCLLTTVLINAAAGVLMAISPTYTWMLIFRLIQGLVSKAGWLIGYILITEFVGRRYRRTVGIFYQVAYTVGLLVLAGVAYALPHWRWLQFTVSLPNFFFLLYYWCIPESPRWLISQNKNAEAMRIIKHIAKKNGKSLPASLQRLRLEEETGKKLNPSFLDLVRTPQIRKHTMILMYNWFTSSVLYQGLIMHMGLAGDNIYLDFFYSALVEFPAAFMIILTIDRIGRRYPWAASNMVAGAACLASVFIPGDLQWLKIIISCLGRMGITMAYEIVCLVNAELYPTFIRNLGVHICSSMCDIGGIITPFLVYRLTNIWLELPLMVFGVLGLVAGGLVLLLPETKGKALPETIEEAENMQRPRKNKEKMIYLQVQKLDIPLN", "values": [{"measurement": "Km", "setting": "[5]", "value": 102, "unit": "µM"}]}
{"molecule": "Solute carrier family 22 member 1 (Rattus norvegicus) (protein) MPTVDDVLEQVGEFGWFQKQAFLLLCLISASLAPIYVGIVFLGFTPGHYCQNPGVAELSQRCGWSQAEELNYTVPGLGPSDEASFLSQCMRYEVDWNQSTLDCVDPLSSLVANRSQLPLGPCEHGWVYDTPGSSIVTEFNLVCGDAWKVDLFQSCVNLGFFLGSLVVGYIADRFGRKLCLLVTTLVTSVSGVLTAVAPDYTSMLLFRLLQGMVSKGSWVSGYTLITEFVGSGYRRTTAILYQMAFTVGLVGLAGVAYAIPDWRWLQLAVSLPTFLFLLYYWFVPESPRWLLSQKRTTRAVRIMEQIAQKNGKVPPADLKMLCLEEDASEKRSPSFADLFRTPNLRKHTVILMYLWFSCAVLYQGLIMHVGATGANLYLDFFYSSLVEFPAAFIILVTIDRIGRIYPIAASNLVTGAACLLMIFIPHELHWLNVTLACLGRMGATIVLQMVCLVNAELYPTFIRNLGMMVCSALCDLGGIFTPFMVFRLMEVWQALPLILFGVLGLTAGAMTLLLPETKGVALPETIEEAENLGRRKSKAKENTIYLQVQTGKSSST", "values": [{"measurement": "Km", "setting": "[5]", "value": 346, "unit": "µM"}]}
{"molecule": "Solute carrier family 22 member 2 (Rattus norvegicus) (protein) MSTVDDILEHIGEFHLFQKQTFFLLALLSGAFTPIYVGIVFLGFTPDHHCWSPGAAKLSQRCGWSQAEELNYTVPGLGPSDEASFLSQCMRYEVDWNQSTLDCVDPLSSLAADRNQLPLGPCEHGWVYNTPGSSIVTEFNLVCAHSWMLDLFQSVVNVGFFIGAMMIGYLADRFGRKFCLLVTILINAISGALMAISPNYAWMLVFRFLQGLVSKAGWLIGYILITEFVGLGYRRMVGICYQIAFTVGLLILAGVAYVIPNWRWLQFAVTLPNFCFLLYFWCIPESPRWLISQNKIVKAMKIIKHIAKKNGKSVPVSLQNLTPDEDAGKKLNPSFLDLVRTPQIRKHTLILMYNWFTSSVLYQGLIMHMGLAGDNIYLDFFYSALVEFPAAFIIILTIDRVGRRYPWAVSNMVAGAACLASVFIPDDLQWLKITIACLGRMGITMAYEMVCLVNAELYPTYIRNLGVLVCSSMCDIGGIITPFLVYRLTDIWMEFPLVVFAVVGLVAGALVLLLPETKGKALPETIEDAENMQRPRKKKEKRIYLQVKQADRPLS", "values": [{"measurement": "Km", "setting": "[5]", "value": 441, "unit": "µM"}]}
